System: MiaPaCa-2 cells
Experiment: MiaPaCa-2 Cell proliferation assay in 3D culture (CCK8)
Assay type: cell-based
Details: Homo sapiens, MIA PaCa-2, 120 h; 3D spheroid culture, 5 days with compound, CCK8 readout
Method: MiaPaCa-2 Cell proliferation assay in 3D culture. To evaluate cell viability, MiaPaCa-2 cells in logarithmic growth phase were seeded at optimal density and grown in as spheroids. Cells were incubated for 24 hours prior to the addition of different concentrations of the compounds. Cells were cultured with the compounds for 5 days and the cell viability was assessed using CCK8. Briefly, 2500 cells were seeded in round bottom ultra-low attachment 96 well plates (coming) in growth media supplemented with 10% FBS and incubated at 37° C. for 24 hours. The compounds were dissolved in DMSO (Sigma) to obtain 10 mM stock solution. Then the compounds were serially diluted in 3-fold to ten concentrations; 5 μL of the dilution above was transferred to 95 uL culture media to obtain the 50× compound stock solution; 4 uL of the 50× compound above was then transferred to the wells containing cells with 196 μL of the culture medium to obtain the final 1× concentration. The final concentration of DMSO was 0.1%. Spheroid cells were incubated in compounds for 5 days. Then 20 μL WST-8 solution (DOJINDO, Cell Counting KIT-8) was added to each well. The plates were further incubated at 37° C. for 1.5 hours, and then absorbance at 450 nm was measured using a microplate reader. Each compound was tested in triplicate and the IC50 value was calculated using GraphPad Prism.
The IC50 values of for Compounds disclosed are listed in Table 2, A: ≤500 nM; B: >500 nM and ≤5 μM; C: >5 μM and ≤50 μM; and D: >50 μM.

Compound	IC50 [nM]
C[C@@H]1OCC2(CCN(c3cnc(Sc4cccc(NC(=O)NS(=O)(=O)C5CCOC5)c4Cl)cn3)CC2)[C@@H]1N (stereo partly drawn) [Example 83, N-((3-((5-((3S,4S)-4-amino-3-methyl-2-oxa-8-azaspiro[4.5]decan-8-yl)pyrazin-2-yl)thio)-2-chlorophenyl)carbamoyl)tetrahydrofuran-3-sulfonamide]	≤ 500
C[C@@H]1OCC2(CCN(c3cnc(Sc4cncc(NC(=O)NS(=O)(=O)c5ccccc5)c4Cl)cn3)CC2)[C@@H]1N [Example 60, N-((5-((5-((3S,4S)-4-amino-3-methyl-2-oxa-8-azaspiro[4.5]decan-8-yl)pyrazin-2-yl)thio)-4-chloropyridin-3-yl)carbamoyl)benzenesulfonamide]	500 to 5000
C[C@@H]1OCC2(CCN(c3cnc(Sc4ccnc(NC(=O)NS(C)(=O)=O)c4Cl)cn3)CC2)[C@@H]1N [Example 77, N-((4-((5-((3S,4S)-4-amino-3-methyl-2-oxa-8-azaspiro[4.5]decan-8-yl)pyrazin-2-yl)thio)-3-chloropyridin-2-yl)carbamoyl)methanesulfonamide]	≤ 500
N[C@@H]1c2ncccc2CC12CCN(c1cnc(Sc3ccnc(NC(=O)NS(=O)(=O)c4ccccc4)c3Cl)cn1)CC2 [Example 14, (S)—N-((4-((5-(7-amino-5,7-dihydrospiro[cyclopenta[b]pyridine-6,4′-piperidin]-1′-yl)pyrazin-2-yl)thio)-3-chloropyridin-2-yl)carbamoyl)benzenesulfonamide]	500 to 5000
COc1ccc(S(=O)(=O)NC(=O)Nc2cccc(Sc3cnc(N4CCC5(CC4)CO[C@@H](C)[C@H]5N)cn3)c2Cl)cn1 [Example 64, N-((3-((5-((3S,4S)-4-amino-3-methyl-2-oxa-8-azaspiro[4.5]decan-8-yl)pyrazin-2-yl)thio)-2-chlorophenyl)carbamoyl)-6-methoxypyridine-3-sulfonamide]	≤ 500
C[C@@H]1OCC2(CCN(c3cnc(Sc4ccnc(NC(=O)NS(=O)(=O)c5ccccc5)c4Cl)cn3)CC2)[C@@H]1N [Example 6, N-((4-((5-((3S,4S)-4-amino-3-methyl-2-oxa-8-azaspiro[4.5]decan-8-yl)pyrazin-2-yl)thio)-3-chloropyridin-2-yl)carbamoyl)benzenesulfonamide]	≤ 500
C[C@@H]1OCC2(CCN(c3cnc(Sc4cccc(NC(=O)NS(=O)(=O)c5cccc(F)c5)c4Cl)cn3)CC2)[C@@H]1N [Example 62, N-((3-((5-((3S,4S)-4-amino-3-methyl-2-oxa-8-azaspiro[4.5]decan-8-yl)pyrazin-2-yl)thio)-2-chlorophenyl)carbamoyl)-3-fluorobenzenesulfonamide]	≤ 500
C[C@@H]1OCC2(CCN(c3cnc(Sc4cccc(NC(=O)NS(=O)(=O)N5CCOCC5)c4Cl)cn3)CC2)[C@@H]1N [Example 74, N-((3-((5-((3S,4S)-4-amino-3-methyl-2-oxa-8-azaspiro[4.5]decan-8-yl)pyrazin-2-yl)thio)-2-chlorophenyl)carbamoyl)morpholine-4-sulfonamide]	≤ 500
C[C@@H]1OCC2(CCN(c3cnc(Sc4ccnc(NC(=O)NS(=O)(=O)c5cnn(C)c5)c4Cl)cn3)CC2)[C@@H]1N [Example 55, N-((4-((5-((3S,4S)-4-amino-3-methyl-2-oxa-8-azaspiro[4.5]decan-8-yl)pyrazin-2-yl)thio)-3-chloropyridin-2-yl)carbamoyl)-1-methyl-1H-pyrazole-4-sulfonamide]	≤ 500
C[C@@H]1OCC2(CCN(c3cnc(Sc4cccc(NC(=O)NS(=O)(=O)N5CCC(N)C5)c4Cl)cn3)CC2)[C@@H]1N (stereo partly drawn) [Example 84, 3-amino-N-((3-((5-((3S,4S)-4-amino-3-methyl-2-oxa-8-azaspiro[4.5]decan-8-yl)pyrazin-2-yl)thio)-2-chlorophenyl)carbamoyl)pyrrolidine-1-sulfonamide]	≤ 500
COc1ccc(S(=O)(=O)NC(=O)Nc2nccc(Sc3cnc(N4CCC5(CC4)CO[C@@H](C)[C@H]5N)cn3)c2Cl)cn1 [Example 54, N-((4-((5-((3S,4S)-4-amino-3-methyl-2-oxa-8-azaspiro[4.5]decan-8-yl)pyrazin-2-yl)thio)-3-chloropyridin-2-yl)carbamoyl)-6-methoxypyridine-3-sulfonamide]	≤ 500
C[C@@H]1OCC2(CCN(c3cnc(Sc4ccnc(NC(=O)NS(=O)(=O)c5cccnc5)c4Cl)cn3)CC2)[C@@H]1N [Example 51, N-((4-((5-((3S,4S)-4-amino-3-methyl-2-oxa-8-azaspiro[4.5]decan-8-yl)pyrazin-2-yl)thio)-3-chloropyridin-2-yl)carbamoyl)pyridine-3-sulfonamide]	500 to 5000
C[C@@H]1OCC2(CCN(c3cnc(Sc4cccc(NC(=O)NS(=O)(=O)c5ccccc5)c4Cl)cn3)CC2)[C@@H]1N [Example 49, N-((3-((5-((3S,4S)-4-amino-3-methyl-2-oxa-8-azaspiro[4.5]decan-8-yl)pyrazin-2-yl)thio)-2-chlorophenyl)carbamoyl)benzenesulfonamide]	≤ 500
C[C@@H]1OCC2(CCN(c3cnc(Sc4cccc(NC(=O)NS(=O)(=O)N5CCCCC5)c4Cl)cn3)CC2)[C@@H]1N [Example 75, N-((3-((5-((3S,4S)-4-amino-3-methyl-2-oxa-8-azaspiro[4.5]decan-8-yl)pyrazin-2-yl)thio)-2-chlorophenyl)carbamoyl)piperidine-1-sulfonamide]	≤ 500
C[C@@H]1OCC2(CCN(c3cnc(Sc4ccnc(NC(=O)NS(=O)(=O)C5CC5)c4Cl)cn3)CC2)[C@@H]1N [Example 57, N-((4-((5-((3S,4S)-4-amino-3-methyl-2-oxa-8-azaspiro[4.5]decan-8-yl)pyrazin-2-yl)thio)-3-chloropyridin-2-yl)carbamoyl)cyclopropanesulfonamide]	≤ 500
C[C@@H]1OCC2(CCN(c3cnc(Sc4cccc(NC(=O)NS(=O)(=O)N5CCCC5)c4Cl)cn3)CC2)[C@@H]1N [Example 13, N-((3-((5-((3S,4S)-4-amino-3-methyl-2-oxa-8-azaspiro[4.5]decan-8-yl)pyrazin-2-yl)thio)-2-chlorophenyl)carbamoyl)pyrrolidine-1-sulfonamide]	≤ 500
C[C@@H]1OCC2(CCN(c3cnc(Sc4cccc(NC(=O)NS(=O)(=O)C5CCN(C)CC5)c4Cl)cn3)CC2)[C@@H]1N [Example 70, N-((3-((5-((3S,4S)-4-amino-3-methyl-2-oxa-8-azaspiro[4.5]decan-8-yl)pyrazin-2-yl)thio)-2-chlorophenyl)carbamoyl)-1-methylpiperidine-4-sulfonamide]	≤ 500
Cc1nc(N2CCC3(CC2)CO[C@@H](C)[C@H]3N)c(CO)nc1Sc1cccc(NC(=O)NS(=O)(=O)c2ccccc2)c1Cl [Example 11, N-((3-((5-((3S,4S)-4-amino-3-methyl-2-oxa-8-azaspiro[4.5]decan-8-yl)-6-(hydroxymethyl)-3-methylpyrazin-2-yl)thio)-2-chlorophenyl)carbamoyl)benzenesulfonamide]	≤ 500
C[C@@H]1OCC2(CCN(c3cnc(Sc4cccc(NC(=O)NS(=O)(=O)c5ccc(F)cc5)c4Cl)cn3)CC2)[C@@H]1N [Example 78, N-((3-((5-((3S,4S)-4-amino-3-methyl-2-oxa-8-azaspiro[4.5]decan-8-yl)pyrazin-2-yl)thio)-2-chlorophenyl)carbamoyl)-4-fluorobenzenesulfonamide]	≤ 500
C[C@@H]1OCC2(CCN(c3cnc(Sc4cccc(NC(=O)NS(=O)(=O)c5cccnc5)c4Cl)cn3)CC2)[C@@H]1N [Example 61, N-((3-((5-((3S,4S)-4-amino-3-methyl-2-oxa-8-azaspiro[4.5]decan-8-yl)pyrazin-2-yl)thio)-2-chlorophenyl)carbamoyl)pyridine-3-sulfonamide]	≤ 500
C[C@@H]1OCC2(CCN(c3cnc(Sc4ccnc(NC(=O)NS(=O)(=O)c5ccccc5F)c4Cl)cn3)CC2)[C@@H]1N [Example 52, N-((4-((5-((3S,4S)-4-amino-3-methyl-2-oxa-8-azaspiro[4.5]decan-8-yl)pyrazin-2-yl)thio)-3-chloropyridin-2-yl)carbamoyl)-2-fluorobenzenesulfonamide]	≤ 500
C[C@@H]1OCC2(CCN(c3cnc(Sc4cccc(NC(=O)NS(=O)(=O)C5CCOCC5)c4Cl)cn3)CC2)[C@@H]1N [Example 68, N-((3-((5-((3S,4S)-4-amino-3-methyl-2-oxa-8-azaspiro[4.5]decan-8-yl)pyrazin-2-yl)thio)-2-chlorophenyl)carbamoyl)tetrahydro-2H-pyran-4-sulfonamide]	≤ 500
C[C@@H]1OCC2(CCN(c3cnc(Sc4cccc(NC(=O)NS(=O)(=O)C5CCCC5)c4Cl)cn3)CC2)[C@@H]1N [Example 73, N-((3-((5-((3S,4S)-4-amino-3-methyl-2-oxa-8-azaspiro[4.5]decan-8-yl)pyrazin-2-yl)thio)-2-chlorophenyl)carbamoyl)cyclopentanesulfonamide]	≤ 500
C[C@@H]1OCC2(CCN(c3ncc(Sc4ccnc(NC(=O)NS(=O)(=O)c5ccccc5)c4Cl)c4nncn34)CC2)[C@@H]1N [Example 15, N-((4-((5-((3S,4S)-4-amino-3-methyl-2-oxa-8-azaspiro[4.5]decan-8-yl)[1,2,4]triazolo[4,3-c]pyrimidin-8-yl)thio)-3-chloropyridin-2-yl)carbamoyl)benzenesulfonamide]	500 to 5000

From patent US20250109118A1, “HETEROCYCLIC COMPOUNDS AS SHP2 INHIBITORS, COMPOSITIONS COMPRISING THE HETEROCYCLIC COMPOUND, AND METHODS OF USE THEREOF” (JS INNOMED HOLDINGS LTD., priority 2021, published 2025)
